These molecules were tested against T1, human α7 nAChR (Homo sapiens, UniProt P36544) (assay: α7 nAChR FLIPR (Fluorometric Imaging Plate Reader) Ca2+ assay, agonist EC50). Details: GH4C1 cells stably transfected with human α7 nAChR; Fluo-4 Ca2+ fluorescence; Examples 194 to 205 tested as the HCl salt; read-out: pEC50 value (negative logarithm of the agonist EC50) (converted).
T1 construct: host or cells: GH4C1 cells (pituitary tumor, immortalized cell line)
Type: cell-based
Description: α7 nAChR FLIPR® (Fluorometric Imaging Plate Reader) Assay
Function of the heterologous expressed α7 nAChR was assessed by a FLIPR-Ca^2+ assay. Since nAChRs are non-selective cation channels with high permeability to Ca^2+, these studies were carried out by measuring changes of intracellular Ca^2+ concentration using the Ca^2+-chelating fluorescent dye Fluo-4 and FLIPR® (Fluorometric Imaging Plate Reader) technology.
GH4C1cells (pituitary tumor, immortalized cell line) stably transfected with human α7 nAChR (Biocat ID 96986), were thawed, suspended in growth medium (Ham's Nutrient Mixture F10—Ham's F10, Invitrogen 31550-023, 15% Horse Serum heat inactivated—Invitrogen 26050-047, 2.5% Foetal Bovine Serum—FBS, Gibco 10500-064, 200 μg/ml Hygromycin B—Invitrogen, 10687-010, 10 mg/L Phenol Red—Sigma, P 0290, 1 mM Glutamine—Invitrogen, 25030-024) and plated in 500 cm^2 Triple Flask.
Cells were then incubated at 30° C., 5% CO2 for 72 hours.
On the day of the experiment, cells were washed twice with Assay Buffer (AB) (145 mM NaCl, 5 mM KCl, 1 mM MgCl2, 2 mM CaCl2, 20 mM HEPES, 5.5 mM Glucose pH=7.3) containing 2.5 mM Probenecid. Changes in the intracellular Ca^2+ content of stably transfected cells were measured using the Ca^2+ chelating dye Fluo-4 (Tef Labs 0152) in conjunction with a FLIPR® (Molecular Devices). The cell permeant dye Fluo-4 was prepared to a concentration of 1 mM in 100% DMSO and 10% Pluronic acid. The dye was then diluted with AB to a final concentration of 2 μM and placed on the cells. After 45-60 minutes dye loading incubation at 37° C., the unincorporated dye was removed from the cells by washing (80 μL, 3 times) with AB, and a final volume of 30 μL/well of AB was left in each well.
Plates containing test compounds (dissolved in 100% DMSO at 2 mM and serially diluted with DMSO) were copied into “daughter” plates (1 μL/well dispensation). Just prior to starting the assay, the “daughter” plate was diluted with 50 μL/well of AB.
The plates were then placed in the FLIPR®, and cell fluorescence was determined before drug addition (30 seconds) and monitored (excitation 488 nm, emission 510-580 nm) immediately following exposure to compounds. Maximum fluorescence values were recorded and fitted for agonist EC50 calculations.
The results are expressed as pEC50 values. A pEC50 is the negative logarithm of the agonist EC50 calculation as determined in the α7 nAChR FLIPR® assay. […] Variations in pEC50 may arise between tests.

T1 sequence (P36544 23-502): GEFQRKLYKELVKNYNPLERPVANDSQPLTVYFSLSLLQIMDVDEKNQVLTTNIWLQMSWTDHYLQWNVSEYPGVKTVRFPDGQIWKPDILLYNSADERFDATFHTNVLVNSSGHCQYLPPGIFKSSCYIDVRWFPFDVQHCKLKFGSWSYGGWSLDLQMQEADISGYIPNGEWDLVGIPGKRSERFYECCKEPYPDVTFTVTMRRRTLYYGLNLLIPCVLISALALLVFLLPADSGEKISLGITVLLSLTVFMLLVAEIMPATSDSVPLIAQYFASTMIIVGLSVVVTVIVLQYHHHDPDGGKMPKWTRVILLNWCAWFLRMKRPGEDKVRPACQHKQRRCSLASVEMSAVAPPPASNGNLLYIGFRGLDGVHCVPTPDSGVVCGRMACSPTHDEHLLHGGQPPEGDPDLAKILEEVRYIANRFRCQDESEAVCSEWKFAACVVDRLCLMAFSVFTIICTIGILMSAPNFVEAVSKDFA

| SMILES | EC50 |
| --- | --- |
| CCN(CC)CCCCNc1nnc(-c2ccc(NC(=O)C3CCCCC3)cc2OC)o1 [Example 82, N-[4-(5-{[4-(diethylamino)butyl]amino}-1,3,4-oxadiazol-2-yl)-3-(methyloxy)phenyl]cyclohexanecarboxamide] | ≤ 1000 nM |
| COc1cc(NC(=O)C2CCCCC2)ccc1-c1nnc(NCCCCN2CCCCC2)o1 [Example 83, N-[3-(methyloxy)-4-(5-{[4-(1-piperidinyl)butyl]amino}-1,3,4-oxadiazol-2-yl)phenyl]cyclohexanecarboxamide] | ≤ 100 nM |
| O=C(Nc1ccc(-c2nnc(NCCCN3CCCC3)o2)c(C(F)(F)F)c1)c1ccccc1F [Example 84, 2-fluoro-N-[4-(5-{[3-(1-pyrrolidinyl)propyl]amino}-1,3,4-oxadiazol-2-yl)-3-(trifluoromethyl)phenyl]benzamide] | ≤ 1000 nM |
| O=C(Nc1ccc(-c2nnc(NCCCCN3CCCC3)o2)c(C(F)(F)F)c1)c1ccccc1F [Example 85, 2-fluoro-N-[4-(5-{[4-(1-pyrrolidinyl)butyl]amino}-1,3,4-oxadiazol-2-yl)-3-(trifluoromethyl)phenyl]benzamide] | ≤ 100 nM |
| O=C(Nc1ccc(-c2nnc(NCCCN3CCOCC3)o2)c(C(F)(F)F)c1)c1ccccc1F [Example 86, 2-fluoro-N-[4-(5-{[3-(4-morpholinyl)propyl]amino}-1,3,4-oxadiazol-2-yl)-3-(trifluoromethyl)phenyl]benzamide] | ≤ 1000 nM |
| O=C(Nc1ccc(-c2nnc(NCCCCN3CCOCC3)o2)c(C(F)(F)F)c1)c1ccccc1F [Example 87, 2-fluoro-N-[4-(5-{[4-(4-morpholinyl)butyl]amino}-1,3,4-oxadiazol-2-yl)-3-(trifluoromethyl)phenyl]benzamide] | ≤ 1000 nM |
| CCN(CC)CCCNc1nnc(-c2ccc(NC(=O)c3ccccc3F)cc2C(F)(F)F)o1 [Example 88, N-[4-(5-{[3-(diethylamino)propyl]amino}-1,3,4-oxadiazol-2-yl)-3-(trifluoromethyl)phenyl]-2-fluorobenzamide] | ≤ 1000 nM |
| CCN(CC)CCCCNc1nnc(-c2ccc(NC(=O)c3ccccc3F)cc2C(F)(F)F)o1 [Example 89, N-[4-(5-{[4-(diethylamino)butyl]amino}-1,3,4-oxadiazol-2-yl)-3-(trifluoromethyl)phenyl]-2-fluorobenzamide] | ≤ 100 nM |
| O=C(Nc1ccc(-c2nnc(NCCCCN3CCCCC3)o2)c(C(F)(F)F)c1)c1ccccc1F [Example 90, 2-fluoro-N-[4-(5-{[4-(1-piperidinyl)butyl]amino]-1,3,4-oxadiazol-2-yl)-3-(trifluoromethyl)phenyl]benzamide] | ≤ 100 nM |
| O=C(Nc1ccc(-c2nnc(NCCCN3CCCC3)o2)c(C(F)(F)F)c1)c1ccccc1 [Example 91, N-[4-(5-{[3-(1-pyrrolidinyl)propyl]amino}-1,3,4-oxadiazol-2-yl)-3-(trifluoromethyl)phenyl]benzamide] | ≤ 1000 nM |
| O=C(Nc1ccc(-c2nnc(NCCCCN3CCCC3)o2)c(C(F)(F)F)c1)c1ccccc1 [Example 92, N-[4-(5-{[4-(1-pyrrolidinyl)butyl]amino}-1,3,4-oxadiazol-2-yl)-3-(trifluoromethyl)phenyl]benzamide] | ≤ 100 nM |
| O=C(Nc1ccc(-c2nnc(NCCCN3CCOCC3)o2)c(C(F)(F)F)c1)c1ccccc1 [Example 93, N-[4-(5-{[3-(4-morpholinyl)propyl]amino}-1,3,4-oxadiazol-2-yl)-3-(trifluoromethyl)phenyl]benzamide] | ≤ 1000 nM |
| O=C(Nc1ccc(-c2nnc(NCCCCN3CCOCC3)o2)c(C(F)(F)F)c1)c1ccccc1 [Example 94, N-[4-(5-{[4-(4-morpholinyl)butyl]amino}-1,3,4-oxadiazol-2-yl)-3-(trifluoromethyl)phenyl]benzamide] | ≤ 100 nM |
| CCN(CC)CCCNc1nnc(-c2ccc(NC(=O)c3ccccc3)cc2C(F)(F)F)o1 [Example 95, N-[4-(5-{[3-(diethylamino)propyl]amino}-1,3,4-oxadiazol-2-yl)-3-(trifluoromethyl)phenyl]benzamide] | ≤ 1000 nM |
| CCN(CC)CCCCNc1nnc(-c2ccc(NC(=O)c3ccccc3)cc2C(F)(F)F)o1 [Example 96, N-[4-(5-{[4-(diethylamino)butyl]amino}-1,3,4-oxadiazol-2-yl)-3-(trifluoromethyl)phenyl]benzamide] | ≤ 100 nM |
| O=C(Nc1ccc(-c2nnc(NCCCN3CCCCC3)o2)c(C(F)(F)F)c1)c1ccccc1 [Example 97, N-[4-(5-{[3-(1-piperidinyl)propyl]amino}-1,3,4-oxadiazol-2-yl)-3-(trifluoromethyl)phenyl]benzamide] | ≤ 1000 nM |
| O=C(Nc1ccc(-c2nnc(NCCCCN3CCCCC3)o2)c(C(F)(F)F)c1)c1ccccc1 [Example 98, N-[4-(5-{[4-(1-piperidinyl)butyl]amino}-1,3,4-oxadiazol-2-yl)-3-(trifluoromethyl)phenyl]benzamide] | ≤ 100 nM |
| O=C(Nc1ccc(-c2nnc(NCCCN3CCCC3)o2)c(Cl)c1)c1ccccc1 [Example 99] | ≤ 1000 nM |
| O=C(Nc1ccc(-c2nnc(NCCCCN3CCCC3)o2)c(Cl)c1)c1ccccc1 [Example 100, N-[3-chloro-4-(5-{[4-(1-pyrrolidinyl)butyl]amino}-1,3,4-oxadiazol-2-yl)phenyl]benzamide] | ≤ 100 nM |
| O=C(Nc1ccc(-c2nnc(NCCCN3CCOCC3)o2)c(Cl)c1)c1ccccc1 [Example 101, N-[3-chloro-4-(5-{[3-(4-morpholinyl)propyl]amino}-1,3,4-oxadiazol-2-yl)phenyl]benzamide] | ≤ 1000 nM |
| O=C(Nc1ccc(-c2nnc(NCCCCN3CCOCC3)o2)c(Cl)c1)c1ccccc1 [Example 102, N-[3-chloro-4-(5-{[4-(4-morpholinyl)butyl]amino}-1,3,4-oxadiazol-2-yl)phenyl]benzamide] | ≤ 100 nM |

Continued, values first:

| EC50 | SMILES |
| --- | --- |
| ≤ 1000 nM | CCN(CC)CCCNc1nnc(-c2ccc(NC(=O)c3ccccc3)cc2Cl)o1 [Example 103, N-[3-chloro-4-(5-{[3-(diethylamino)propyl]amino}-1,3,4-oxadiazol-2-yl)phenyl]benzamide] |
| ≤ 100 nM | CCN(CC)CCCCNc1nnc(-c2ccc(NC(=O)c3ccccc3)cc2Cl)o1 [Example 104, N-[3-chloro-4-(5-{[4-(diethylamino)butyl]amino}-1,3,4-oxadiazol-2-yl)phenyl]benzamide] |
| ≤ 1000 nM | O=C(Nc1ccc(-c2nnc(NCCCN3CCCCC3)o2)c(Cl)c1)c1ccccc1 [Example 105, N-[3-chloro-4-(5-{[3-(1-piperidinyl)propyl]amino}-1,3,4-oxadiazol-2-yl)phenyl]benzamide] |
| ≤ 100 nM | O=C(Nc1ccc(-c2nnc(NCCCCN3CCCCC3)o2)c(Cl)c1)c1ccccc1 [Example 106, N-[3-chloro-4-(5-{[4-(1-piperidinyl)butyl]amino}-1,3,4-oxadiazol-2-yl)phenyl]benzamide] |
| ≤ 1000 nM | O=C(Nc1ccc(-c2nnc(NCCCN3CCCC3)o2)c(F)c1)c1ccccc1 [Example 107, N-[3-fluoro-4-(5-{[3-(1-pyrrolidinyl)propyl]-amino}-1,3,4-oxadiazol-2-yl)phenyl]benzamide] |
| ≤ 100 nM | O=C(Nc1ccc(-c2nnc(NCCCCN3CCCC3)o2)c(F)c1)c1ccccc1 [Example 108, N-[3-fluoro-4-(5-{[4-(1-pyrrolidinyl)butyl]amino}-1,3,4-oxadiazol-2-yl)phenyl]benzamide] |
| ≤ 1000 nM | CCN(CC)CCCNc1nnc(-c2ccc(NC(=O)c3ccccc3)cc2F)o1 [Example 111, N-[4-(5-{[3-(diethylamino)propyl]amino}-1,3,4-oxadiazol-2-yl)-3-fluorophenyl]benzamide] |
| ≤ 100 nM | CCN(CC)CCCCNc1nnc(-c2ccc(NC(=O)c3ccccc3)cc2F)o1 [Example 112, N-[4-(5-{[4-(diethylamino)butyl]amino}-1,3,4-oxadiazol-2-yl)-3-fluorophenyl]benzamide] |
| ≤ 1000 nM | O=C(Nc1ccc(-c2nnc(NCCCN3CCCCC3)o2)c(F)c1)c1ccccc1 [Example 113, N-[3-fluoro-4-(5-{[3-(1-piperidinyl)propyl]amino}-1,3,4-oxadiazol-2-yl)phenyl]benzamide] |
| ≤ 100 nM | O=C(Nc1ccc(-c2nnc(NCCCCN3CCCCC3)o2)c(F)c1)c1ccccc1 [Example 114, N-[3-fluoro-4-(5-{[4-(1-piperidinyl)butyl]amino}-1,3,4-oxadiazol-2-yl)phenyl]benzamide] |

Reference: patent publication US20090105217A1, “2-PHENYL-5-AMINO-1,3,4-OXADIAZOLES AND THEIR USE AS NICOTINIC ACETYLCHOLINE RECEPTOR LIGANDS” (priority 2007, published 2009)
